Data on 7 compounds can be found in patent US10246429B2, “Vinyl fluoride cyclopropyl fused thiazin-2-amine compounds as beta-secretase inhibitors and methods of use” (AMGEN INC., priority 2015, dated 2019).

pIC50: −log10 of the molar value.

The target in one test is BACE2 (Homo sapiens (Human), UniProt Q9Y5Z0). Put plainly: In vitro enzymatic BACE2 FRET assay. It counts as biochemical. The conditions noted are these: read-out: IC50 IP (μM) BACE2 Enzyme.
Test [1] concerns the target T1, BACE1 (Homo sapiens (Human), UniProt P56817). Put plainly: In vitro enzymatic BACE1 FRET assay. It counts as biochemical. To be noted: read-out: IC50 IP (μM) BACE1 Enzyme.
Target sequence in this assay (P56817 46-501): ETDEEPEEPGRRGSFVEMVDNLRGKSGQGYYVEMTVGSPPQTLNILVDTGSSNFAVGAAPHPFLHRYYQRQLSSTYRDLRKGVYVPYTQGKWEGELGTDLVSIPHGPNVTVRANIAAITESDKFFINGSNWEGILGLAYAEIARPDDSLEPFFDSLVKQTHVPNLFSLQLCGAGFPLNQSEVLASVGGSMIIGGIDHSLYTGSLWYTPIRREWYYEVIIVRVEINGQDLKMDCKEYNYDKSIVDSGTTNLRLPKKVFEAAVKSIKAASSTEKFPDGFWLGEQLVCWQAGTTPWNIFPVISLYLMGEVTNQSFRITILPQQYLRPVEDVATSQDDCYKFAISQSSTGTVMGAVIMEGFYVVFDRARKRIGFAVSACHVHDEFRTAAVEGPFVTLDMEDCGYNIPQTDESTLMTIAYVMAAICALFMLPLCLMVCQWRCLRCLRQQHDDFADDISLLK
From the text: (§1) In Vitro Enzymatic BACE1 and BACE2 FRET (Fluorescence Resonance Energy Transfer) Assays (Enzyme Assay Data in Table 1)
The target of test [2] is T1, BACE1. Put plainly: BACE1 cell assay. It counts as cell-based. The conditions noted are these: for IC50: read-out: IC50 IP (μM) BACE1 Cell.
Target sequence in this assay (P56817 46-501, species assumed): as the sequence (P56817 46-501) above
The target of a further test is Cathepsin D (CatD) (Homo sapiens (Human), UniProt P07339). The experiment in a line: CatD assay. It counts as biochemical. To be noted: read-out: IC50 IP (μM) CatD.

What is called IC50 is the concentration that gives 50% inhibition. As a reminder, the pIC50 is the IC50 on a negative log10 scale, so that one unit is a factor of ten.

BACE2, sequence (Q9Y5Z0 63-518): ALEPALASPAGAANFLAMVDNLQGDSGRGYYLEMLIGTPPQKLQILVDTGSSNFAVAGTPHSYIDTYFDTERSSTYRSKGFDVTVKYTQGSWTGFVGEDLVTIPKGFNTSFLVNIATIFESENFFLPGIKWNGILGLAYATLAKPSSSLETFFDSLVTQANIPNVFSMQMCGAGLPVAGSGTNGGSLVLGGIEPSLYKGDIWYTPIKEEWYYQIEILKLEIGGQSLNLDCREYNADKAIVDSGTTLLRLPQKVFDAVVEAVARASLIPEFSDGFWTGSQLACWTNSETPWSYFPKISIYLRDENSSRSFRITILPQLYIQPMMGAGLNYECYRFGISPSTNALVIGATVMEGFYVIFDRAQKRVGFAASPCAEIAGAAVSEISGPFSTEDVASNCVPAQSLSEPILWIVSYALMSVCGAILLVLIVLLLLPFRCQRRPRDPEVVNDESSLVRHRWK
Cathepsin D (CatD), sequence (P07339 65-412, species assumed): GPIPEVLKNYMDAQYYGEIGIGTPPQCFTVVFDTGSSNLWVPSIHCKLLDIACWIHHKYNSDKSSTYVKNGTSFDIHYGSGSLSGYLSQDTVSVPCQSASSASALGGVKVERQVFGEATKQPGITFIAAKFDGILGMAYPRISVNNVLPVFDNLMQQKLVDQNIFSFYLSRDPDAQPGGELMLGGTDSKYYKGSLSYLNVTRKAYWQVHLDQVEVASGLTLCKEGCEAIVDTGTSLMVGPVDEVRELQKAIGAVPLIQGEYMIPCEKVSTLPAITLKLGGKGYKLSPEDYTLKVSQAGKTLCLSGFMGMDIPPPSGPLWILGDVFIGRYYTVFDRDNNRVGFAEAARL
From the text for BACE2: as §1

Consider `CN(C)C(=O)[C@]12C[C@H]1[C@@](C)(c1cc(/C=C(\F)c3cnc(OCC#N)cn3)ccc1F)N=C(N)S2` [Example 158, (1S,5S,6S)-3-amino-5-(5-((Z)-2-(5-(cyanomethoxy)pyrazin-2-yl)-2-fluorovinyl)-2-fluorophenyl)-N,N,5-trimethyl-2-thia-4-azabicyclo[4.1.0]hept-3-ene-1-carboxamide], for which the 50% inhibitory concentration (IC50) on BACE2 turned out to be 0.0927 µM; on BACE1 [1], 0.116 µM; on BACE1 [2], 0.119 µM; on Cathepsin D (CatD), 400 µM.

In the case of `CNC(=O)[C@]12C[C@H]1[C@@](C)(c1cc(/C=C(\F)c3cnc(Br)cn3)ccc1F)N=C(N)S2` [Example 163, (1S,5S,6S)-3-amino-5-(5-((Z)-2-(5-bromopyrazin-2-yl)-2-fluorovinyl)-2-fluorophenyl)-N,5-dimethyl-2-thia-4-azabicyclo[4.1.0]hept-3-ene-1-carboxamide], the IC50 at BACE2 amounted to 0.266 µM; on BACE1 [1] it was 0.0249 µM; on Cathepsin D (CatD) it was 69.7 µM. In addition, at BACE1 [2], the pIC50 is 6.54.

With `CC#Cc1cnc(/C(F)=C/c2ccc(F)c([C@@]3(C)N=C(N)S[C@@]4(C(=O)NC)C[C@H]43)c2)cn1` [Example 164, (1S,5S,6S)-3-amino-5-(2-fluoro-5-((Z)-2-fluoro-2-(5-(prop-1-yn-1-yl)pyrazin-2-yl)vinyl)phenyl)-N,5-dimethyl-2-thia-4-azabicyclo[4.1.0]hept-3-ene-1-carboxamide], the concentration for half-maximal inhibition (IC50) on BACE2 was determined as 0.229 µM; at BACE1 [1] it was 0.0125 µM; at Cathepsin D (CatD), 156 µM. For the same compound, the pIC50 on BACE1 [2] was 7.30.

With `CNC(=O)[C@]12C[C@H]1[C@@](C)(c1cc(/C=C(\F)c3cnc(C#CC4CC4)cn3)ccc1F)N=C(N)S2` [Example 165, (1S,5S,6S)-3-amino-5-(5-((Z)-2-(5-(cyclopropylethynyl)pyrazin-2-yl)-2-fluorovinyl)-2-fluorophenyl)-N,5-dimethyl-2-thia-4-azabicyclo[4.1.0]hept-3-ene-1-carboxamide], the IC50 at BACE2 came out at 0.307 µM; at BACE1 [1], 0.00707 µM; on BACE1 [2], 0.121 µM; at Cathepsin D (CatD), 538 µM.

Take `CNC(=O)[C@]12C[C@H]1[C@@](C)(c1cc(/C=C(\F)c3cnc(C#C[Si](C)(C)C)cn3)ccc1F)N=C(N)S2` [Example 166, (1S,5S,6S)-3-amino-5-(2-fluoro-5-((Z)-2-fluoro-2-(5-((trimethylsilyl)ethynyl)pyrazin-2-yl)vinyl)phenyl)-N,5-dimethyl-2-thia-4-azabicyclo[4.1.0]hept-3-ene-1-carboxamide]: the IC50 at BACE2 came to 1.72 µM; at BACE1 [1] it was 0.0171 µM; on BACE1 [2], 0.185 µM; at Cathepsin D (CatD), 146 µM.

Take `CN(C)C(=O)[C@]12C[C@H]1[C@@](C)(c1cc(/C=C(\F)c3ccc(C#N)cc3)ccc1F)N=C(N)S2` [Example 168, (1S,5S,6S)-3-amino-5-(5-((Z)-2-(4-cyanophenyl)-2-fluorovinyl)-2-fluorophenyl)-N,N,5-trimethyl-2-thia-4-azabicyclo[4.1.0]hept-3-ene-1-carboxamide]: the IC50 was 0.104 µM at BACE2, 0.00496 µM on BACE1 [1], 0.0368 µM on BACE1 [2] and 442 µM at Cathepsin D (CatD).

For `CN(C)C(=O)[C@]12C[C@H]1[C@@](C)(c1cc(/C=C(\F)c3cnc(C#N)nc3)ccc1F)N=C(N)S2` [Example 173, (1S,5S,6S)-3-amino-5-(5-((Z)-2-(2-cyanopyrimidin-5-yl)-2-fluorovinyl)-2-fluorophenyl)-N,N,5-trimethyl-2-thia-4-azabicyclo[4.1.0]hept-3-ene-1-carboxamide], the IC50 at BACE2 worked out at 0.3 µM; at BACE1 [1], 0.15 µM; on BACE1 [2] it was 0.924 µM; at Cathepsin D (CatD) it was 225 µM.
